IC50 data for 91 molecules are collected here from PubChem BioAssay AID1159558 (GlaxoSmithKline (GSK), 2015).

Activity calls are given as the source filed them.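 How the source made its calls: active means IC50 against T. cruzi CYP51 below a set limit; inactive means the rest.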 A value given as a limit tells only on which side of the number the result lay.

Chain of Sterol 14-alpha demethylase (Trypanosoma cruzi (strain CL Brener)) (Q7Z1V1 whole entry, looked up): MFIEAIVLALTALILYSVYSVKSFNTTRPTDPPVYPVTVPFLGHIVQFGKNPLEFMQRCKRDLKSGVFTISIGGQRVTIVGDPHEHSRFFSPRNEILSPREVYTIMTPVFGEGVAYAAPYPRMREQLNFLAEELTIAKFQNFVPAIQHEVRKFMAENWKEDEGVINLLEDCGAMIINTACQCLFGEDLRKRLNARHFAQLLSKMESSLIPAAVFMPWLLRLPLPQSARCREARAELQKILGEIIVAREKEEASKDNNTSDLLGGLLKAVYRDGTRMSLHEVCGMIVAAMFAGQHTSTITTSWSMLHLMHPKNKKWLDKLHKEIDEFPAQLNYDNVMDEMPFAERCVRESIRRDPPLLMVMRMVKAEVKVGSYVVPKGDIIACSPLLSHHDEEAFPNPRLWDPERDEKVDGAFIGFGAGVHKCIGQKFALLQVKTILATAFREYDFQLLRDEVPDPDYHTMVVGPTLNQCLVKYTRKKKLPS

This test has as its target Sterol 14-alpha demethylase (Trypanosoma cruzi (strain CL Brener)) (UniProt Q7Z1V1). The test can be described thus: T. cruzi sterol 14-alpha demethylase inhibition – biochemical, recombinant enzyme, mechanism study for T. cruzi antiparasitic project, dose response (AID 1159558).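 Further: enzyme in bacterial membranes with Anopheles gambiae CYP reductase and cytochrome b5 partners.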 As to conditions: recombinant T. cruzi CYP51, BOMCC fluorescence.
On to `CNc1nc(C)nc(N2CCc3cc(C(=O)NCc4ccc(-c5ccn[nH]5)cc4Cl)ccc32)n1`, for which the IC50 was 5 µM.

Consider `COCc1cc(Nc2ccc(Cl)cc2)nc(-c2ccccn2)n1`, for which the IC50 was > 100 µM (inactive).

For `Cc1c(CNC(=O)c2ccc(Cn3cc(Cl)c([N+](=O)[O-])n3)cc2)cnn1C`, the IC50 was > 100 µM (inactive).

For `COc1ccc(Cl)cc1CC(=O)Nc1n[nH]c(-c2ccccn2)n1`, the IC50 is > 100 µM (inactive).

For the molecule `O=S(=O)(NCC(c1cccnc1)N1CCN(c2ccc(F)cc2)CC1)c1cccs1` (stereo unspecified), the IC50 is 0.04 µM.

Regarding `O=C(NCC(c1cccs1)N1CCOCC1)c1ccc([N+](=O)[O-])o1` (stereo unspecified), the concentration for half-maximal inhibition (IC50) is 10 µM.

Regarding `O=C(NCC1CCCCC1)c1cc(=O)c2ccccc2o1`, the IC50 was > 100 µM (inactive).

As for `Cc1[nH]nc(Nc2ccnc3[nH]ccc23)c1C`, the IC50 was 79 µM.

As for `CCNc1cc(-c2ccccn2)nc(Nc2ccccc2)n1`, the IC50 is > 100 µM (inactive).

Turning to `CCOc1ccc(OCC(=O)N2c3ccccc3CC2C(=O)NC)cc1` (stereo unspecified), the IC50 is > 100 µM (inactive).

As to `O=C(CSc1ccc(F)cc1)N[C@@H](Cc1cnc[nH]1)C(=O)NCCc1ccccc1`, the IC50 was 0.079 µM.

Regarding `O=c1oc2ccccc2n1C1CCN(Cc2ccccc2-c2cccnc2)CC1`, the concentration for half-maximal inhibition (IC50) was 0.1 µM.

With `O=C(Nc1cccc(F)c1)N1CCC(Oc2cccc(-c3cccnc3)c2)CC1`, the half-inhibitory concentration (IC50) is 0.16 µM.

On to `O=C(Nc1n[nH]c(-c2ccccn2)n1)C1CC1c1ccccc1` (stereo unspecified), for which the IC50 is > 100 µM (inactive).

Regarding `CC(C)Nc1nccc(-c2c(-c3ccc(F)cc3)ncn2C2CCOCC2)n1`, the IC50 was > 100 µM (inactive).

Consider `CS(=O)(=O)NC1CCC(Nc2ncc(Br)c(Nc3ccccc3C(N)=O)n2)CC1` (stereo unspecified), for which the IC50 is > 100 µM (inactive).

As to `CC1=C(C(=O)Nc2ccc(Cl)cc2)C(c2ccncc2)n2ncc(C(=O)Nc3ccccc3)c2N1` (stereo unspecified), the half-maximal inhibitory concentration (IC50) was 0.13 µM.

Turning to `Cc1nc(N2CC(C)OC(C)C2)sc1C(=O)Nc1ccc2c(c1)OCO2` (stereo unspecified), the half-maximal inhibitory concentration (IC50) was 40 µM.

For `Oc1c(-c2n[nH]c(Cc3ccc(F)cc3)n2)ncc2cccnc12`, the IC50 was > 100 µM (inactive).

With `O=C(Nc1ccc(Br)c(Cl)c1)Nc1ccc2c(c1)OCO2`, the IC50 is > 100 µM (inactive).

As to `COc1ccc2c(Cl)c(C(=O)N3CCC3)sc2c1Cl`, the IC50 is > 100 µM (inactive).

For the molecule `Cc1ccccc1OCC(=O)N1CCCN(c2cccnn2)CC1`, the IC50 was 0.079 µM.

Take `O=C(Cn1cnc2c(-c3ccccc3)csc2c1=O)N1CCCCC1`: the half-maximal inhibitory concentration (IC50) was 40 µM.

In the case of `CC(C(=O)Nc1ccccc1F)N(C)CC(=O)Nc1cccc2ccccc12` (stereo unspecified), the concentration for half-maximal inhibition (IC50) is 16 µM.

On to `COc1ccccc1-n1c(SCC(=O)Nc2ccc3c(c2)OCO3)nc2c(c1=O)SCC2`, for which the half-maximal inhibitory concentration (IC50) was 63 µM.

Consider `Cc1[nH]nc2c1C(c1ccc(OCc3ccccc3F)cc1)SCC(=O)N2` (stereo unspecified), for which the IC50 was > 100 µM (inactive).

In the case of `Cc1cc(Nc2ccc(C#N)c(Cl)c2C)n[nH]1`, the IC50 was 40 µM.

On to `O=C(NCCc1csc(-c2cccc(F)c2)n1)c1ccco1`, for which the IC50 was > 100 µM (inactive).

For the molecule `O=C(CN1CCN(c2ccccn2)CC1)Nc1cc(S(=O)(=O)N2CCCCCC2)ccc1Cl`, the half-maximal inhibitory concentration (IC50) was 3.2 µM.

For `CN(C)S(=O)(=O)c1ccc(-c2cnc(N)c(-c3nc4ccc(F)cc4[nH]3)c2)cc1`, the IC50 was 40 µM.

Take `O=C(CSc1ccc(-c2ccccn2)nn1)Nc1ccc(Cl)cc1`: the IC50 is > 100 µM (inactive).

As to `CCCC(=O)N(Cc1ccccn1)c1nc2ccccc2s1`, the IC50 is 0.05 µM.

Consider `COC(=O)c1ccc(-c2cnc3ccc(NCc4ccccn4)nn23)cc1`, for which the IC50 is 1.3 µM.

In the case of `CN(C)CCOc1ccc(N2CCN(S(=O)(=O)c3ccc(Cl)cc3)CC2)cc1`, the IC50 is 25 µM.

For the molecule `C[C@@H](Oc1cc(-n2cnc3cc(N)ccc32)sc1C(N)=O)c1ccccc1Cl`, the IC50 is 3.2 µM.

Consider `O=C(CCCNC(=O)c1ccc(Cl)cc1)Nc1nc(-c2ccccn2)cs1`, for which the IC50 was 3.2 µM.

In the case of `CCC(=O)Nc1ccc(C(=O)Nc2ccccc2-c2ccccc2)cc1`, the IC50 was > 100 µM (inactive).

As to `CN(C)S(=O)(=O)c1cccc(CSc2nnc(-c3ccc4c(c3)OCO4)o2)c1`, the concentration for half-maximal inhibition (IC50) is 13 µM.

On to `CCCc1nc2nc(N)nc(N)c2cc1CC`, for which the IC50 is > 100 µM (inactive).

For `CCc1cccc(CC)c1-n1c(SCC(=O)NC(=O)NCc2ccco2)nnc1-c1cccnc1`, the IC50 is 1 µM.

Take `CC(C)Oc1ccc(C(=O)Nc2ccc(N3CCOCC3)c(Cl)c2)cc1`: the IC50 was > 100 µM (inactive).

In the case of `CC(C)c1cc(Nc2cc(Cc3ccccc3)nc(NC3CCC(O)CC3)n2)n[nH]1` (stereo unspecified), the 50% inhibitory concentration (IC50) is 20 µM.

Regarding `CC1(C)CCC(=Cc2ccc(Cl)cc2)CC1(O)Cn1ccnc1` (stereo unspecified), the IC50 was 0.05 µM.

On to `Cc1ccc(NC(=O)c2ccnc(N3CCCC3)c2)cc1-c1ccsc1C(N)=O`, for which the IC50 is 1.3 µM.

Take `CS(=O)(=O)N1CCC(Nc2ncc(Br)c(Nc3cccc(F)c3C(N)=O)n2)CC1`: the IC50 is > 100 µM (inactive).

For `O=C(Nc1nc2ccccc2[nH]1)c1c(O)c2cccc3c2n(c1=O)CC3`, the IC50 is > 100 µM (inactive).

Regarding `COc1ccc2ncc(Cl)c(CCN3CC[C@@H](NCc4cc5c(cn4)OCS5)[C@H](O)C3)c2n1`, the IC50 is 1 µM.

Take `CCOc1cnn(C)c(=O)c1Nc1ccc(C(=O)NCc2ccc(F)cc2)cc1`: the half-inhibitory concentration (IC50) was 4 µM.

As to `Cc1ccc(NC(=O)c2ccc([N+](=O)[O-])s2)cc1S(=O)(=O)N1CCOCC1`, the IC50 is 20 µM.

For the molecule `Cc1nc2c(-c3cccs3)c(C)nn2c(NCCO)c1C`, the IC50 is > 100 µM (inactive).

For `O=C(c1ccc(Cl)cc1)c1ccc(OC(=O)N2CCOCC2)cc1`, the half-maximal inhibitory concentration (IC50) is 40 µM.

As to `Cc1ccc(S(C)(=O)=O)cc1Nc1nccc(-c2sc(N)nc2-c2ccccc2)n1`, the IC50 was > 100 µM (inactive).

For `Cc1ccccc1NS(=O)(=O)c1ccc2[nH]cc(C(=O)NC3CCCCC3)c(=O)c2c1`, the IC50 was 10 µM.

As for `COc1ccc2nccc(NC(=O)C3(OC)CCN(CC(O)c4ccc5c(c4)OCCO5)CC3)c2n1` (stereo unspecified), the IC50 was 1 µM.

With `Cc1ccccc1CNc1cc(C2CC2)nc(-c2nccn2C)n1`, the IC50 was 16 µM.

For the molecule `CNc1nc(C)nc(N2CCc3cc(C(=O)NCc4ccc(-c5nccn5C)cc4Cl)ccc32)n1`, the IC50 was 1.6 µM.

In the case of `CS(=O)(=O)c1ccc(Nc2nccc(Nc3n[nH]c4ccc(F)cc34)n2)c(F)c1`, the IC50 was 40 µM.

Take `O=C1COC(c2ccccc2)(c2ccccc2)CN1C1CCN(Cc2ccc(-n3ccnc3)cc2)CC1`: the 50% inhibitory concentration (IC50) was 0.079 µM.

On to `COc1cc(C(C)C)c(S(C)(=O)=O)cc1C(=O)N1CCN(c2ccccc2Cl)CC1`, for which the IC50 was > 100 µM (inactive).

Take `CCOc1cc(NCCCN2CCN(C)CC2)c2ncccc2c1`: the IC50 was > 100 µM (inactive).

For the molecule `COc1ccc(Oc2ccc(C(C)N(C)c3ncc4c(N)nc(N)nc4n3)cc2)cc1` (stereo unspecified), the IC50 is 1.6 µM.

Take `CCOc1ccc(NC(=O)c2ccc(NC(=O)NC3CCCCC3)cc2)cc1`: the IC50 is > 100 µM (inactive).

As for `Cc1ccc2nc(N(Cc3cccnc3)C(=O)CCc3ccccc3)sc2c1`, the IC50 was 0.063 µM.

Consider `CC(=O)Nc1ccc(-c2csc(NC(=O)c3ccc([N+](=O)[O-])s3)n2)cc1`, for which the IC50 is 6.3 µM.

Turning to `CC(C)(C)C(Cn1ccnc1)NC(=O)c1ccc2nc(C3CC3)oc2c1` (stereo unspecified), the IC50 is 0.1 µM.

For the molecule `COc1cc(NC(=O)Nc2cccc(CNC(=O)OC3CCCCC3)c2)ccc1-c1cnco1`, the IC50 was 25 µM.

Consider `N#Cc1cccc(CNc2ccc(-c3cnn(CC4CC4)c(=O)c3C#N)cc2)c1`, for which the IC50 was 6.3 µM.

In the case of `COCCn1cnc2cc(NC(=O)C3CCCCC3)cc(C(=O)N3CCc4sccc4C3)c21`, the half-inhibitory concentration (IC50) is 50 µM.

Take `COc1ncc(-c2ccc3ncnc(N4CCOCC4)c3c2)cc1NS(C)(=O)=O`: the IC50 is 40 µM.

Take `Nc1nc(-c2ccccn2)nc(-n2nc(-c3cccc(C(F)(F)F)c3)cc2N)n1`: the IC50 is > 100 µM (inactive).

With `O=C(c1cc2cc(Cl)ccc2[nH]1)N1CCCCC1c1cccnc1` (stereo unspecified), the IC50 was 0.063 µM.

Regarding `c1ccc(Nc2nc(-c3ccccn3)cc(N3CCOCC3)n2)cc1`, the IC50 was > 100 µM (inactive).

Consider `Cc1cc(C#N)c([N+](=O)[O-])cc1Br`, for which the IC50 is 7.9 µM.

As to `CN(Cc1cc2ccccc2s1)c1ncc2c(N)nc(N)nc2n1`, the IC50 is > 100 µM (inactive).

As to `CC(c1ccc2c(c1)CCCC2)N(C)c1ncc2c(N)nc(N)nc2n1` (stereo unspecified), the IC50 is 25 µM.

`CCC(=O)N1N=C(c2ccc3c(c2)CCCC3)Sc2c1ncn2C(=O)CC`: the IC50 was > 100 µM (inactive).

For `CCCN(Cc1ccc(OC)c(OC)c1)Cc1cc(=O)c2c(C)cc(C)cc2[nH]1`, the IC50 was > 100 µM (inactive).

Consider `COc1ccc(-c2nc3ncccc3o2)cc1NC(=O)c1cccs1`, for which the IC50 is > 100 µM (inactive).

Consider `COc1ccc(Nc2nc(-c3ccccn3)cs2)c(OC)c1`, for which the half-inhibitory concentration (IC50) is 20 µM.

On to `O=C(Nc1cccc(Cl)c1)N1CCCCC1c1cccnc1` (stereo unspecified), for which the half-maximal inhibitory concentration (IC50) is 0.02 µM.

For `c1ccc(CCNCc2cncc3nc(-c4cnccn4)n(C4CCCCC4)c23)cc1`, the IC50 is 0.1 µM.

With `COc1cc(OC)cc(C(NS(=O)(=O)c2ccc(Cl)c(C(F)(F)F)c2)c2nccn2C)c1` (stereo unspecified), the concentration for half-maximal inhibition (IC50) was 32 µM.

On to `CN1C(=O)c2ccccc2Sc2ccc(NC(=O)NCc3ccco3)cc21`, for which the IC50 was 32 µM.

As to `Oc1c(-c2n[nH]c(CCc3ccccc3)n2)ncc2cccnc12`, the IC50 is > 100 µM (inactive).

Turning to `N#Cc1c(Oc2cccc(Cl)c2)cccc1[N+](=O)[O-]`, the IC50 is > 100 µM (inactive).

Regarding `OC[C@@H](Nc1nccc(-c2c(-c3ccc(F)cc3)ncn2C2CCNCC2)n1)c1ccccc1`, the IC50 is 25 µM.

As for `CCC(c1ccc(F)cc1)n1cncc1-c1cnn(C)c1` (stereo unspecified), the IC50 was 0.079 µM.

Turning to `Cc1[nH]c2ccccc2c(=O)c1Cc1c(C)[nH]c2ccccc2c1=O`, the IC50 was > 100 µM (inactive).

Take `Cc1nc2nc(C)c(Cc3ccc(C(C)C)cc3)c(=O)n2[nH]1`: the IC50 is > 100 µM (inactive).

For the molecule `c1ccc(CNc2cccc3ccncc23)cc1`, the half-maximal inhibitory concentration (IC50) was 0.1 µM.

Turning to `Nc1nc(-c2ccccc2)cc(-c2nc3ncccc3[nH]2)n1`, the IC50 is > 100 µM (inactive).
